The test system of assay [1] is Tobacco mosaic virus. Put plainly: Antiviral activity against TMV U1 infected on 20 mins compound treated fresh leaves from 5 to 6 growth stage Nicotiana glutinosa assessed as inhibition of virus growth at 50 ug/ml cultured at 25 degC for 72 hrs by half-leaf method. It is filed as functional. The following applies: U1, in Nicotiana glutinosa.
Assay [2] relates to Tobacco mosaic virus. Put plainly: Antiviral activity against 30 mins compound pre-treated TMV U1 infected on Nicotiana glutinosa leaves assessed as virus inactivation effect by measuring local lesion numbers after 3 to 4 days post virus inoculation at 50 ug/ml by half-leaf method. It is filed as functional. The note with it: U1, in Nicotiana glutinosa.
In assay [3] the test system is Tobacco mosaic virus. In words: Antiviral activity against TMV U1 infected on compound smeared Nicotiana glutinosa leaves assessed as virus infection protective effect by measuring local lesion numbers after 3 to 4 days post virus inoculation at 200 ug/ml by half-leaf method. The format is functional. The note with it: U1, in Nicotiana glutinosa.
For assay [4], the system named is Tobacco mosaic virus. In words: Antiviral activity against TMV U1 infected on Nicotiana glutinosa leaves smeared with virus before compound treatment assessed as virus infection curative effect by measuring local lesion numbers after 3 to 4 days post virus inoculation at 200 ug/ml by half-leaf method. The following applies: U1, in Nicotiana glutinosa. The format is functional.

The test system of assay [5] is Tobacco mosaic virus. In words: Antiviral activity against 30 mins compound pre-treated TMV U1 infected on Nicotiana glutinosa leaves assessed as virus inactivation effect by measuring local lesion numbers after 3 to 4 days post virus inoculation at 50 ug/ml by half-leaf method relative to untreated control. The format is functional. The note with it: U1, in Nicotiana glutinosa.

Assay [6] deals with Tobacco mosaic virus. Put plainly: Antiviral activity against 30 mins compound pre-treated TMV U1 infected on Nicotiana glutinosa leaves assessed as virus inactivation effect by measuring local lesion numbers after 3 to 4 days post virus inoculation at 40 ug/ml by half-leaf method relative to untreated control. The format is functional. The note with it: U1, in Nicotiana glutinosa.

Assay [7] relates to Tobacco mosaic virus. In words: Antiviral activity against 30 mins compound pre-treated TMV U1 infected on Nicotiana glutinosa leaves assessed as virus inactivation effect by measuring local lesion numbers after 3 to 4 days post virus inoculation at 30 ug/ml by half-leaf method relative to untreated control. The format is functional. The following applies: U1, in Nicotiana glutinosa.

The subject of assay [8] is Tobacco mosaic virus. Put plainly: Antiviral activity against 30 mins compound pre-treated TMV U1 infected on Nicotiana glutinosa leaves assessed as virus inactivation effect by measuring local lesion numbers after 3 to 4 days post virus inoculation at 20 ug/ml by half-leaf method relative to untreated control. The format is functional. The note with it: U1, in Nicotiana glutinosa.

The test system of assay [9] is Tobacco mosaic virus. In words: Antiviral activity against 30 mins compound pre-treated TMV U1 infected on Nicotiana glutinosa leaves assessed as virus inactivation effect by measuring local lesion numbers after 3 to 4 days post virus inoculation at 10 ug/ml by half-leaf method relative to untreated control. The format is functional. The following applies: U1, in Nicotiana glutinosa.

Assay [10] concerns Tobacco mosaic virus. Put plainly: Antiviral activity against 30 mins compound pre-treated TMV U1 infected on Nicotiana glutinosa leaves assessed as virus inactivation effect by measuring local lesion numbers after 3 to 4 days post virus inoculation at 5 ug/ml by half-leaf method relative to untreated control. It is filed as functional. The following applies: U1, in Nicotiana glutinosa.

The subject of assay [11] is Tobacco mosaic virus. In words: Antiviral activity against 30 mins compound pre-treated TMV U1 infected on Nicotiana glutinosa leaves assessed as virus inactivation effect by measuring local lesion numbers after 3 to 4 days post virus inoculation by half-leaf method relative to untreated control. The format is functional, organism-based.
Assay [12] deals with Tobacco mosaic virus. Put plainly: Potency index, ratio of IC50 for ningnanmycin to IC50 for test compound against 30 mins compound pre-treated TMV U1 infected on Nicotiana glutinosa leaves assessed as virus inactivation effect by measuring local lesion numbers after 3 to 4 days post virus inoculation by half-leaf method relative to untreated control. The format is functional.

In a further assay the test system is HL-60. Put plainly: Cytotoxicity against human HL60 cells incubated for 48 hrs by MTT assay. The format is functional, cell-based. The note with it: HL-60, 48 h. (In general: Formazan colour is commonly taken as a measure of viable cells.)
A further assay deals with SMMC-7721. In words: Cytotoxicity against human SMMC7721 cells incubated for 48 hrs by MTT assay. It is filed as functional, cell-based. The note with it: SMMC-7721, 48 h.
The next assay deals with A549. Put plainly: Cytotoxicity against human A549 cells incubated for 48 hrs by MTT assay. It is filed as functional, cell-based. The following applies: A549, 48 h.
For another assay, the system named is MCF7. Put plainly: Cytotoxicity against human MCF7 cells incubated for 48 hrs by MTT assay. The format is functional, cell-based. The following applies: MCF7, 48 h.
The next assay deals with SW480. Put plainly: Cytotoxicity against human SW480 cells incubated for 48 hrs by MTT assay. The format is functional, cell-based. The note with it: SW480, 48 h.

By inhibition is commonly meant the change of the read-out against control, counted positive when it falls. As a reminder, the IC50 is the concentration that inhibits the measured activity by half.

In brackets after ≈: the same amount, converted by molar mass.

With `CC(=O)O[C@@H]1[C@@H]2[C@@]3(C)C=CC(=O)OC(C)(C)[C@@H]3CC(=O)[C@@]2(C)[C@@]23O[C@@H]2C[C@@H](c2ccoc2)[C@]3(C)[C@H]1OC(C)=O`, the inhibition at 50 µg/mL was 98.9% in the assay with Tobacco mosaic virus [1], 98.2% in the assay on Tobacco mosaic virus [2] and 95.6% in the assay with Tobacco mosaic virus [5]. For the same compound, the inhibition at 200 µg/mL was found to be 56.7% in the assay with Tobacco mosaic virus [3] and 52.8% in the assay on Tobacco mosaic virus [4]. Also, the inhibition at 40 µg/mL in the assay with Tobacco mosaic virus [6] came out at 92.3%. In addition, in the assay on Tobacco mosaic virus [7], the inhibition at 30 µg/mL came out at 86.1%. The inhibition at 20 µg/mL in the assay with Tobacco mosaic virus [8] came to 62.3%. Moreover, in the assay with Tobacco mosaic virus [9], the inhibition at 10 µg/mL is 30.9%. Besides, in the assay with Tobacco mosaic virus [10], the inhibition at 5 µg/mL turned out to be 11.8%. The 50% inhibitory concentration (IC50) was 19.6 µg/mL (≈ 36.3 µM) with Tobacco mosaic virus [11]; more than 10 µM in the assay with HL-60; more than 10 µM in the assay with SMMC-7721; more than 10 µM with A549; more than 10 µM in the assay with MCF7; more than 10 µM with SW480. The “Ratio IC50” value in the assay on Tobacco mosaic virus [12] came out at 2.
Consider `CC(=O)O[C@@H]1[C@@H]2[C@@]3(C)[C@@H](OC(C)=O)CC(=O)OC(C)(C)[C@@H]3CC(=O)[C@@]2(C)[C@@]23O[C@@H]2C[C@@H](c2ccoc2)[C@]3(C)[C@H]1OC(C)=O`, for which the results for the inhibition at 50 µg/mL with Tobacco mosaic virus [1], with Tobacco mosaic virus [2] and in the assay on Tobacco mosaic virus [5] were 97.6%, 95.3% and 93.9%, respectively. The inhibition at 200 µg/mL in the assay on Tobacco mosaic virus [3] came to 60.2%; with Tobacco mosaic virus [4] it was 57.6%. In the assay with Tobacco mosaic virus [6], the inhibition at 40 µg/mL worked out at 91.4%. Besides, in the assay with Tobacco mosaic virus [7], the inhibition at 30 µg/mL was 80.3%. Moreover, in the assay on Tobacco mosaic virus [8], the inhibition at 20 µg/mL was 64.9%. Also, the inhibition at 10 µg/mL with Tobacco mosaic virus [9] was 28.7%. The inhibition at 5 µg/mL in the assay with Tobacco mosaic virus [10] is 9.7%. For the same compound, the IC50 in the assay on Tobacco mosaic virus [11] is 20.4 µg/mL (≈ 34 µM); in the assay on HL-60 it was more than 10 µM; in the assay on SMMC-7721, more than 10 µM; in the assay on A549, more than 10 µM; in the assay on MCF7, more than 10 µM; in the assay with SW480, more than 10 µM.
Consider `C/C=C(\C)C(=O)O[C@H]1C[C@@H](OC(C)=O)[C@@]2(C)CO[C@H]3[C@@H](O)[C@@]4(C)C5=C(C)[C@H](c6ccoc6)C[C@@H]5O[C@H](OC)C[C@@H]4[C@]1(C)[C@@H]32`, for which the results for the inhibition at 50 µg/mL with Tobacco mosaic virus [1], in the assay on Tobacco mosaic virus [2] and in the assay on Tobacco mosaic virus [5] were 97.9%, 91.4% and 92.8%, respectively. In addition, the inhibition at 200 µg/mL in the assay with Tobacco mosaic virus [3] was 63.8%; with Tobacco mosaic virus [4], 59.6%. Further, the inhibition at 40 µg/mL with Tobacco mosaic virus [6] came out at 79.8%. In addition, the inhibition at 30 µg/mL in the assay with Tobacco mosaic virus [7] amounted to 68.2%. Moreover, the inhibition at 20 µg/mL in the assay on Tobacco mosaic virus [8] stood at 39.7%. Besides, the inhibition at 10 µg/mL with Tobacco mosaic virus [9] was determined as 20.5%. The half-inhibitory concentration (IC50) in the assay with Tobacco mosaic virus [11] is 25.8 µg/mL (≈ 43.1 µM); in the assay with HL-60, more than 10 µM; with SMMC-7721 it was more than 10 µM; with A549, more than 10 µM; in the assay on MCF7, more than 10 µM; with SW480 it was more than 10 µM.
Regarding `C/C=C(\C)C(=O)O[C@H]1C[C@@H](OC(C)=O)[C@@]2(C)CO[C@H]3[C@@H](O)[C@@]4(C)C5=C(C)[C@H](c6ccoc6)C[C@H]5O[C@@H](OC)C[C@@H]4[C@]1(C)[C@@H]32`, the figures for the inhibition at 50 µg/mL in the assay with Tobacco mosaic virus [1], in the assay on Tobacco mosaic virus [2] and in the assay with Tobacco mosaic virus [5] were 98.5%, 88.9% and 86.9%, respectively. Moreover, the inhibition at 200 µg/mL in the assay on Tobacco mosaic virus [3] was determined as 63.8%; with Tobacco mosaic virus [4], 44.9%. Moreover, the inhibition at 40 µg/mL in the assay with Tobacco mosaic virus [6] stood at 70.3%. For the same compound, in the assay on Tobacco mosaic virus [7], the inhibition at 30 µg/mL amounted to 63.5%. Besides, the inhibition at 20 µg/mL in the assay with Tobacco mosaic virus [8] was found to be 30.7%. Moreover, the inhibition at 10 µg/mL in the assay on Tobacco mosaic virus [9] turned out to be 16.4%. Moreover, the inhibition at 5 µg/mL in the assay with Tobacco mosaic virus [10] amounted to 6.3%. Further, the half-maximal inhibitory concentration (IC50) was 28.1 µg/mL (≈ 46.9 µM) with Tobacco mosaic virus [11]; more than 10 µM in the assay on HL-60; more than 10 µM with SMMC-7721; more than 10 µM in the assay on A549; more than 10 µM with MCF7; more than 10 µM with SW480.
`CC(=O)O[C@H]1C[C@H]2[C@](C)(C3=CC[C@@H](c4ccoc4)[C@@]31C)[C@H](OC(C)=O)C[C@H]1C(C)(C)OC(=O)C[C@H](OC(C)=O)[C@@]12C` [MUNRONOID L]: the inhibition at 50 µg/mL in the assay with Tobacco mosaic virus [1] was 80%; in the assay on Tobacco mosaic virus [2] it was 61.4%; with Tobacco mosaic virus [5] it was 60.8%. Moreover, the inhibition at 200 µg/mL amounted to 42.1% with Tobacco mosaic virus [3] and 23.7% with Tobacco mosaic virus [4]. Also, the inhibition at 40 µg/mL in the assay with Tobacco mosaic virus [6] turned out to be 57.6%. In addition, in the assay on Tobacco mosaic virus [7], the inhibition at 30 µg/mL is 51.4%. The inhibition at 20 µg/mL in the assay with Tobacco mosaic virus [8] came to 48%. Further, in the assay with Tobacco mosaic virus [9], the inhibition at 10 µg/mL was 21.5%. The inhibition at 5 µg/mL in the assay on Tobacco mosaic virus [10] was 10.2%. Moreover, the IC50 in the assay on Tobacco mosaic virus [11] is 29 µg/mL (≈ 50.8 µM); with HL-60, more than 10 µM; with SMMC-7721, more than 10 µM; with A549, more than 10 µM; in the assay with MCF7 it was more than 10 µM; in the assay on SW480 it was more than 10 µM.
For the compound `C=C1[C@@H]([C@@]2(C)[C@@H](OC(C)=O)CC(=O)O[C@](C)(COC(C)=O)[C@@H]2C(=O)OC)[C@@H](OC=O)[C@H](OC(=O)[C@H](O)[C@H](C)CC)[C@@]2(C)[C@H](c3ccoc3)CC(=O)[C@]12O` [PRIEURIANIN], the inhibition at 50 µg/mL in the assay on Tobacco mosaic virus [1] is 75.9%; in the assay with Tobacco mosaic virus [2], 68.1%; in the assay on Tobacco mosaic virus [5], 70.5%. Moreover, the inhibition at 200 µg/mL with Tobacco mosaic virus [3] amounted to 45.7%; in the assay with Tobacco mosaic virus [4], 41.6%. Further, in the assay on Tobacco mosaic virus [6], the inhibition at 40 µg/mL worked out at 39.3%. Also, the inhibition at 30 µg/mL in the assay on Tobacco mosaic virus [7] was 35.6%. For the same compound, the inhibition at 20 µg/mL in the assay with Tobacco mosaic virus [8] amounted to 11.7%. Besides, the inhibition at 10 µg/mL with Tobacco mosaic virus [9] was found to be 3.5%. The IC50 in the assay with Tobacco mosaic virus [11] is 44.4 µg/mL (≈ 59.3 µM); with HL-60 it was 4.8 µM; with SMMC-7721, 0.73 µM; in the assay with A549, 1 µM; in the assay on MCF7, 2.2 µM; in the assay on SW480, 1.2 µM.

The values above are taken from ChEMBL document CHEMBL3580639, “Bioactive Limonoid Constituents of Munronia henryi” (J Nat Prod, 2015).
